Data taken from ChEMBL document CHEMBL5131391, “One-pot three-component synthesis of novel pyrazolo[3,4-b]pyridines as potent antileukemic agents” (Eur J Med Chem, 2022).

What was measured:
Format in all cases: functional
CAKI-1 = assay: Antiproliferative activity against human CAKI-1 cells assessed as growth inhibition at 10 uM measured after 48 hrs by NCI protocol based SRB assay relative to control; conditions: read-out: GI
RXF 393 = assay: Antiproliferative activity against human RXF 393 cells assessed as growth inhibition at 10 uM measured after 48 hrs by NCI protocol based SRB assay relative to control; conditions: read-out: GI
MV4-11 = assay: Antiproliferative activity against human MV4-11 cells assessed as reduction in cell viability incubated for 72 hrs by resazurin dye based assay; conditions: MV4-11, 72 h
HOP-62 = assay: Antiproliferative activity against human HOP-62 cells assessed as growth inhibition at 10 uM measured after 48 hrs by NCI protocol based SRB assay relative to control; conditions: read-out: GI
M14 = assay: Antiproliferative activity against human M14 cells assessed as growth inhibition at 10 uM measured after 48 hrs by NCI protocol based SRB assay relative to control; conditions: read-out: GI
NCI/ADR-RES = assay: Antiproliferative activity against human NCl/ADR-RES cells assessed as growth inhibition at 10 uM measured after 48 hrs by NCI protocol based SRB assay relative to control; conditions: read-out: GI
COLO 205 = assay: Antiproliferative activity against human COLO 205 cells assessed as growth inhibition at 10 uM measured after 48 hrs by NCI protocol based SRB assay relative to control; conditions: read-out: GI
PC-3 = assay: Antiproliferative activity against human PC-3 cells assessed as growth inhibition at 10 uM measured after 48 hrs by NCI protocol based SRB assay relative to control; conditions: read-out: GI
IGROV-1 = assay: Antiproliferative activity against human IGROV-1 cells assessed as growth inhibition at 10 uM measured after 48 hrs by NCI protocol based SRB assay relative to control; conditions: read-out: GI
SK-MEL-28 = assay: Antiproliferative activity against human SK-MEL-28 cells assessed as growth inhibition at 10 uM measured after 48 hrs by NCI protocol based SRB assay relative to control; conditions: read-out: GI
Malme-3M = assay: Antiproliferative activity against human Malme-3M cells assessed as growth inhibition at 10 uM measured after 48 hrs by NCI protocol based SRB assay relative to control; conditions: read-out: GI
786-0 = assay: Antiproliferative activity against human 786-0 cells assessed as growth inhibition at 10 uM measured after 48 hrs by NCI protocol based SRB assay relative to control; conditions: read-out: GI
MCF7 = assay: Antiproliferative activity against human MCF7 cells assessed as growth inhibition at 10 uM measured after 48 hrs by NCI protocol based SRB assay relative to control; conditions: read-out: GI
UO-31 = assay: Antiproliferative activity against human UO-31 cells assessed as growth inhibition at 10 uM measured after 48 hrs by NCI protocol based SRB assay relative to control; conditions: read-out: GI
NCI-H226 = assay: Antiproliferative activity against human NCI-H226 cells assessed as growth inhibition at 10 uM measured after 48 hrs by NCI protocol based SRB assay relative to control; conditions: read-out: GI
SNB-19 = assay: Antiproliferative activity against human SNB-19 cells assessed as growth inhibition at 10 uM measured after 48 hrs by NCI protocol based SRB assay relative to control; conditions: read-out: GI
NCI-H522 = assay: Antiproliferative activity against human NCI-H522 cells assessed as growth inhibition at 10 uM measured after 48 hrs by NCI protocol based SRB assay relative to control; conditions: read-out: GI
SN12C = assay: Antiproliferative activity against human SN12C cells assessed as growth inhibition at 10 uM measured after 48 hrs by NCI protocol based SRB assay relative to control; conditions: read-out: GI
ACHN = assay: Antiproliferative activity against human ACHN cells assessed as growth inhibition at 10 uM measured after 48 hrs by NCI protocol based SRB assay relative to control; conditions: read-out: GI
NCI-H322M = assay: Antiproliferative activity against human NCI-H322M cells assessed as growth inhibition at 10 uM measured after 48 hrs by NCI protocol based SRB assay relative to control; conditions: read-out: GI
CCRF-CEM [1] = assay: Antiproliferative activity against human CCRF-CEM cells assessed as growth inhibition at 10 uM measured after 48 hrs by NCI protocol based SRB assay relative to control; conditions: read-out: GI
MDA-MB-435 = assay: Antiproliferative activity against human MDA-MB-435 cells assessed as growth inhibition at 10 uM measured after 48 hrs by NCI protocol based SRB assay relative to control; conditions: read-out: GI
T47D = assay: Antiproliferative activity against human T47D cells assessed as growth inhibition at 10 uM measured after 48 hrs by NCI protocol based SRB assay relative to control; conditions: read-out: GI
NCI-H23 = assay: Antiproliferative activity against human NCI-H23 cells assessed as growth inhibition at 10 uM measured after 48 hrs by NCI protocol based SRB assay relative to control; conditions: read-out: GI
SW-620 = assay: Antiproliferative activity against human SW-620 cells assessed as growth inhibition at 10 uM measured after 48 hrs by NCI protocol based SRB assay relative to control; conditions: read-out: GI
SF-268 = assay: Antiproliferative activity against human SF-268 cells assessed as growth inhibition at 10 uM measured after 48 hrs by NCI protocol based SRB assay relative to control; conditions: read-out: GI
SF-539 = assay: Antiproliferative activity against human SF-539 cells assessed as growth inhibition at 10 uM measured after 48 hrs by NCI protocol based SRB assay relative to control; conditions: read-out: GI
DU-145 = assay: Antiproliferative activity against human DU-145 cells assessed as growth inhibition at 10 uM measured after 48 hrs by NCI protocol based SRB assay relative to control; conditions: read-out: GI
UACC-62 = assay: Antiproliferative activity against human UACC-62 cells assessed as growth inhibition at 10 uM measured after 48 hrs by NCI protocol based SRB assay relative to control; conditions: read-out: GI
CCRF-CEM [2] = assay: Antiproliferative activity against human CEM cells assessed as reduction in cell viability incubated for 72 hrs by resazurin dye based assay
HCT-116 = assay: Antiproliferative activity against human HCT-116 cells assessed as growth inhibition at 10 uM measured after 48 hrs by NCI protocol based SRB assay relative to control; conditions: read-out: GI
RPMI-8226 = assay: Antiproliferative activity against human RPMI-8226 cells assessed as growth inhibition at 10 uM measured after 48 hrs by NCI protocol based SRB assay relative to control; conditions: read-out: GI
SF-295 = assay: Antiproliferative activity against human SF-295 cells assessed as growth inhibition at 10 uM measured after 48 hrs by NCI protocol based SRB assay relative to control; conditions: read-out: GI
BT-549 = assay: Antiproliferative activity against human BT-549 cells assessed as growth inhibition at 10 uM measured after 48 hrs by NCI protocol based SRB assay relative to control; conditions: read-out: GI
K562 = assay: Antiproliferative activity against human K562 cells assessed as growth inhibition at 10 uM measured after 48 hrs by NCI protocol based SRB assay relative to control; conditions: read-out: GI
A498 = assay: Antiproliferative activity against human A498 cells assessed as growth inhibition at 10 uM measured after 48 hrs by NCI protocol based SRB assay relative to control; conditions: read-out: GI

| Compound | inhibition of growth at 10 µM (CAKI-1) [%] | inhibition of growth at 10 µM (RXF 393) [%] | IC50 (MV4-11) [µM] | inhibition of growth at 10 µM (HOP-62) [%] | inhibition of growth at 10 µM (M14) [%] | inhibition of growth at 10 µM (NCI/ADR-RES) [%] | inhibition of growth at 10 µM (COLO 205) [%] | inhibition of growth at 10 µM (PC-3) [%] | inhibition of growth at 10 µM (IGROV-1) [%] | inhibition of growth at 10 µM (SK-MEL-28) [%] | inhibition of growth at 10 µM (Malme-3M) [%] | inhibition of growth at 10 µM (786-0) [%] | inhibition of growth at 10 µM (MCF7) [%] | inhibition of growth at 10 µM (UO-31) [%] | inhibition of growth at 10 µM (NCI-H226) [%] | inhibition of growth at 10 µM (SNB-19) [%] | inhibition of growth at 10 µM (NCI-H522) [%] | inhibition of growth at 10 µM (SN12C) [%] | inhibition of growth at 10 µM (ACHN) [%] | inhibition of growth at 10 µM (NCI-H322M) [%] | other results |
| --- | --- | --- | --- | --- | --- | --- | --- | --- | --- | --- | --- | --- | --- | --- | --- | --- | --- | --- | --- | --- | --- |
| COc1cc(-c2c(C#N)c(-c3ccccc3)nc3c2c(-c2ccccc2)nn3-c2ccccc2)ccc1O | 37 | 42 | > 50 | 15 | 19 | 22 | 23 | 49 | 13 | 19 | 43 | 24 | 53 | 32 | 24 | 24 | 47 | 32 | 13 | 17 | inhibition of growth at 10 µM (CCRF-CEM [1]): 31%; inhibition of growth at 10 µM (MDA-MB-435): 32%; inhibition of growth at 10 µM (T47D): 39%; inhibition of growth at 10 µM (NCI-H23): 26%; inhibition of growth at 10 µM (SW-620): 22%; inhibition of growth at 10 µM (SF-268): 27%; inhibition of growth at 10 µM (SF-539): 18%; inhibition of growth at 10 µM (DU-145): 25%; inhibition of growth at 10 µM (UACC-62): 12%; IC50 (CCRF-CEM [2]): > 50 µM; inhibition of growth at 10 µM (HCT-116): 45%; inhibition of growth at 10 µM (RPMI-8226): 40% |
| Cc1ccc(-c2nc3c(c(-c4ccccc4)nn3-c3ccccc3)c(-c3ccc(O)cc3)c2C#N)cc1 | 50 | 110 | 3.3 | 60 | 40 | 19 | 30 | 66 | 18 | 33 | 25 | 82 | 74 | 61 | 21 | 31 | 31 | 47 | 33 | 12 | inhibition of growth at 10 µM (SF-295): 120%; inhibition of growth at 10 µM (BT-549): 24%; inhibition of growth at 10 µM (K562): 78%; inhibition of growth at 10 µM (A498): 56%; inhibition of growth at 10 µM (CCRF-CEM [1]): 61%; inhibition of growth at 10 µM (MDA-MB-435): 36%; inhibition of growth at 10 µM (T47D): 39%; inhibition of growth at 10 µM (NCI-H23): 33%; inhibition of growth at 10 µM (SW-620): 38%; inhibition of growth at 10 µM (SF-268): 40%; inhibition of growth at 10 µM (SF-539): 85%; inhibition of growth at 10 µM (DU-145): 40%; inhibition of growth at 10 µM (UACC-62): 37%; IC50 (CCRF-CEM [2]): 13.4 µM; inhibition of growth at 10 µM (HCT-116): 58%; inhibition of growth at 10 µM (RPMI-8226): 79% |
